The values that follow come from patent publication US7834045B2, “N-substituted pyrazolyl carboxanilides” (Bayer CropScience AG, priority 2003, dated 2010).

Each structure is given as a SMILES string.

One data set deals with Puccinia recondita. The data set can be described thus: Puccinia test (wheat)/protective. It counts as in vivo. Particulars: protective, application rate 500 g/ha, evaluation 10 days after inoculation. As to the method:
• Solvent: 25 parts by weight of N,N-dimethylacetamide • Emulsifier: 0.6 part by weight of alkylaryl polyglycol ether To produce a suitable preparation of active compound, 1 part by weight of active compound is mixed with the stated amounts of solvent and emulsifier, and the concentrate is diluted with water to the desired concentration. To test for protective activity, young plants are sprayed with the preparation of active compound at the stated application rate. After the spray coating has dried on, the plants are sprayed with a conidia suspension of Puccinia recondita. The plants remain in an incubation cabinet at 20° C. and 100% relative atmospheric humidity for 48 hours. The plants are then placed in a greenhouse at a temperature of about 20° C. and a relative atmospheric humidity of 80% to promote the development of rust pustules. Evaluation is carried out 10 days after the inoculation. 0% means an efficacy which corresponds to that of the control, whereas an efficacy of 100% means that no infection is observed.

The next data set has as its system Sphaerotheca fuliginea. The data set can be described thus: Sphaerotheca test (cucumber)/protective. In kind it is in vivo. Particulars: protective, application rate 750 g/ha, evaluation 7 days after inoculation. On the procedure:
• Solvent: 49 parts by weight of N,N-dimethylformamide • Emulsifier: 1 part by weight of alkylaryl polyglycol ether To produce a suitable preparation of active compound, 1 part by weight of active compound is mixed with the stated amounts of solvent and emulsifier, and the concentrate is diluted with water to the desired concentration. To test for protective activity, young cucumber plants are sprayed with the preparation of active compound at the stated application rate. 1 day after the treatment, the plants are inoculated with a spore suspension of Sphaerotheca fuliginea. The plants are then placed in a greenhouse at 70% relative atmospheric humidity and a temperature of 23° C. Evaluation is carried out 7 days after the inoculation. 0% means an efficacy which corresponds to that of the control, whereas an efficacy of 100% means that no infection is observed.

Data set [1] is described as follows: log P determination by HPLC on reversed-phase column (EEC Directive 79/831 Annexe V.A8). It counts as physicochemical. The following applies: reversed-phase HPLC column (C 18), pH 2.3, C 18, 43° C., preparation examples. On the procedure:
The log P values given in the preparation examples and tables above are determined in accordance with EEC Directive 79/831 Annexe V.A8 by HPLC (High Performance Liquid Chromatography) on a reversed-phase column (C 18). Temperature: 43° C.
The determination in the acidic range is carried out at pH 2.3 using the mobile phases 0.1% aqueous phosphoric acid and acetonitrile; linear gradient from 10% acetonitrile to 90% acetonitrile.
Calibration was carried out using unbranched alkan-2-ones (with 3 to 16 carbon atoms) with known log P values (determination of the log P values by the retention times using linear interpolation between two successive alkanones).

A further data set concerns Podosphaera leucotricha. Nature of the data set: Podosphaera test (apple)/protective. In kind it is in vivo. Particulars: protective, application rate 100 g/ha, evaluation 10 days after inoculation. On the procedure: (§1) • Solvents: 24.5 parts by weight of acetone • 24.5 parts by weight of dimethylacetamide • Emulsifier: 1 part by weight of alkylaryl polyglycol ether
(§2) To produce a suitable preparation of active compound, 1 part by weight of active compound is mixed with the stated amounts of solvents and emulsifier, and the concentrate is diluted with water to the desired concentration.
To test for protective activity, young plants are sprayed with the preparation of active compound at the stated application rate. After the spray coating has dried on, the plants are inoculated with an aqueous spore suspension of the apple mildew pathogen Podosphaera leucotricha. The plants are then placed in a greenhouse at about 23° C. and a relative atmospheric humidity of about 70%.
(§3) Evaluation is carried out 10 days after the inoculation. 0% means an efficacy which corresponds to that of the control, whereas an efficacy of 100% means that no infection is observed.

The next data set deals with Venturia inaequalis. The data set can be described thus: Venturia test (apple)/protective. It counts as in vivo. The following applies: protective, application rate 100 g/ha, evaluation 10 days after inoculation. On the procedure: as §1, §2
To test for protective activity, young plants are sprayed with the preparation of active compound at the stated application rate. After the spray coating has dried on, the plants are inoculated with an aqueous conidia suspension of the apple scab pathogen Venturia inaequalis and then remain in an incubation cabinet at about 20° C. and 100% relative atmospheric humidity for one day.
The plants are then placed in a greenhouse at about 21° C. and a relative atmospheric humidity of about 90%.
as §3

A further data set has as its system Botrytis cinerea. Nature of the data set: Botrytis test (bean)/protective. It counts as in vivo. Particulars: protective, application rate 500 g/ha, evaluation 2 days after inoculation. On the procedure:
as §1
To produce a suitable preparation of active compound, 1 part by weight of active compound is mixed with the stated amounts of solvent and emulsifier, and the concentrate is diluted with water to the desired concentration.
To test for protective activity, young plants are sprayed with the preparation of active compound at the stated application rate. After the spray coating has dried on, 2 small pieces of agar colonized by Botrytis cinerea are placed onto each leaf. The inoculated plants are placed in a dark chamber at about 20° C. and 100% relative atmospheric humidity.
2 days after the inoculation, the size of the infected areas on the leaves is evaluated. 0% means an efficacy which corresponds to that of the control, whereas an efficacy of 100% means that no infection is observed.

Usually chromatographic logP stands for lipophilicity estimated from chromatographic retention.

On to `Cc1nn(C)c(F)c1C(=O)N(C)c1ccccc1C(C)CC(C)(C)C` (centres unmarked), for which, in the data set on Puccinia recondita, the Efficacy in % is given as 100%. As to `Cc1nn(C)c(F)c1C(=O)N(C)c1ccccc1C(C)CC(C)C` (centres unmarked), in the data set with Puccinia recondita, the Efficacy in % came to 100%.

Turning to `CC(CC(C)(C)C)c1ccccc1N(C)C(=O)c1c(C(F)(F)F)nn(C)c1F` (centres unmarked), the Efficacy in % in the data set on Sphaerotheca fuliginea was 100%. Take `CC(=O)N(C(=O)c1c(C(F)(F)F)nn(C)c1F)c1ccccc1C(C)CC(C)(C)C` (centres unmarked) [Example 1, N-acetyl-5-fluoro-1-methyl-3-(trifluoromethyl)-N-[2-(1,3,3-trimethylbutyl)phenyl]-1H-pyrazole-4-carboxamide]: in data set [1], the chromatographic logP is 4.63. Molecule `CCOC(=O)C(=O)N(C(=O)c1c(C)nn(C)c1F)c1ccccc1C(C)CC(C)(C)C` (centres unmarked) [Example 2, ethyl {[(5-fluoro-1,3-dimethyl-1H-pyrazol-4-yl)carbonyl][2-(1,3,3-trimethylbutyl)phenyl]amino}(oxo)acetate] returned a chromatographic logP in data set [1] of 4.4. Take `CC(=O)Nc1ccccc1C(C)CC(C)C` (centres unmarked) [III-1, N-[2-(1,3-dimethylbutyl)phenyl]acetamide]: in data set [1], the chromatographic logP is 2.65. For `COCN(C(=O)c1c(C(F)(F)F)nn(C)c1F)c1ccccc1C(C)CC(C)(C)C` (centres unmarked) [drawing 19], the Efficacy in % in the data set with Podosphaera leucotricha was 98%. Turning to `CCOC(=O)C(=O)N(C(=O)c1c(C)nn(C)c1F)c1ccccc1C(C)CC(C)(C)C` (centres unmarked) [drawing 20], in the data set with Podosphaera leucotricha, the Efficacy in % was 97%. On to `COCN(C(=O)c1c(C(F)(F)F)nn(C)c1F)c1ccccc1C(C)CC(C)(C)C` (centres unmarked) [drawing 21], for which the Efficacy in % in the data set with Venturia inaequalis amounted to 100%. `CCOC(=O)C(=O)N(C(=O)c1c(C)nn(C)c1F)c1ccccc1C(C)CC(C)(C)C` (centres unmarked) [drawing 22] registered an Efficacy in % with Venturia inaequalis of 100%. In turn, `COCN(C(=O)c1c(C(F)(F)F)nn(C)c1F)c1ccccc1C(C)CC(C)(C)C` (centres unmarked) [drawing 23] registered an Efficacy in % in the data set on Botrytis cinerea of 100%.

As for `CCOC(=O)C(=O)N(C(=O)c1c(C)nn(C)c1F)c1ccccc1C(C)CC(C)(C)C` (centres unmarked) [drawing 24], the Efficacy in % in the data set on Botrytis cinerea is given as 97%. The molecule `COCN(C(=O)c1c(C(F)(F)F)nn(C)c1F)c1ccccc1C(C)CC(C)(C)C` (centres unmarked) [drawing 25] came in with an Efficacy in % with Puccinia recondita of 100%. In the data set on Sphaerotheca fuliginea, `COCN(C(=O)c1c(C(F)(F)F)nn(C)c1F)c1ccccc1C(C)CC(C)(C)C` (centres unmarked) [drawing 29] yielded an Efficacy in % of 100%.
